Data reported in patent US20230416237A1, “AMIDE COMPOUND, PHARMACEUTICAL COMPOSITION AND USE THEREOF” (SHENZHEN BO LI JIAN MEDICINE CO., LTD., priority 2020, published 2023).

How the values were obtained:
[1] = system: IFNα-induced pSTAT3 (JAK1/TYK2 signaling pathway); experiment: Mouse whole blood assay, inhibition of IFNα-induced pSTAT3; format: cell-based; conditions: C57BL/6J mouse blood, IFNα 20000 IU/mL
Protocol: Cytokine IFNα can induce STAT3 phosphorylation (pSTAT3) through the JAK1/TYK2 signaling pathway. […] IFNα used was Recombinant mouse IFNα (Miltenyi #130-093-131), the pSTAT3 antibody used was Alexa Fluor 488 anti-STAT3 Phospho (Tyr705) Antibody (Biolegend #651106), and the CD3 antibody used was Brilliant Violet 421 anti-mouse CD3 Antibody (Biolegend #100228). The cytokine dilution buffer was PBS+0.1% BSA, which was filtered and stored at […]. The FACS buffer was PBS+0.2% BSA+1 mM EDTA. Specific steps are described below. • 1. C57BL/6J mouse blood was added to a 96-well plate, with 90 μL per well. • 2. Each well was added with 5 μL of the compound ([…]), uniformly mixed and incubated at 37° C. for 60 min in an incubator. • 3. Each well was added with 5 μL of 20×IFNα (with a working concentration of 20000 IU/mL) as the stimulation factor, uniformly mixed and incubated at 37° C. for 30 min. • 4. Blood was transferred to a 96-deep-well plate, and each well was added with 1 mL of Lyse fix buffer (1×), uniformly mixed and incubated at 37° C. for 10 min. • 5. The plate was centrifuged at 600 g for 5 min and the supernatant was discarded. 1 mL of PBS was added to each well and centrifuged at 600 g for 5 min and the supernatant was discarded, which were repeated twice. Each well was added with 100 μL of the anti-mCD3 antibody (diluted by a fold of 80 with the cytokine dilution buffer), uniformly mixed and incubated at 4° C. for 30 min. • 6. 1 mL of PBS was added to each well and centrifuged at 600 g for 5 min and the supernatant was discarded, which were repeated twice. Each well was added with 1000 μL of Perm III, uniformly mixed and incubated at 4° C. for 30 min. • 7. The plate was centrifuged at 600 g for 5 min and the supernatant was discarded. 1 mL of PBS was added to each well and centrifuged at 600 g for 5 min and the supernatant was discarded, which were repeated twice. • 8. Each well was added with 100 μL of the anti-pSTAT3 antibody (diluted by a fold of 50 with the FACS buffer), uniformly mixed and incubated at 25° C. for 40 min. • 9. 1 mL of the FACS buffer was added to each well and centrifuged at 600 g for 5 min and the supernatant was discarded. 200 μL of the FACS buffer was added to each well and resuspended. All samples were transferred to a 96-well tip-bottom plate and uploaded. • 10. Data were collected and analyzed.

JAK1 = JAK1 (Homo sapiens (Human), UniProt P23458); experiment: JAK1 inhibitory activity, mobility shift assay, 1 mM ATP; format: biochemical; conditions: for IC50: 1 mM ATP; for JAK2/JAK1 Multiple selectivity: ratio of JAK2 IC50 to JAK1 IC50, 1 mM ATP
Sequence of JAK1 (P23458 850-1154): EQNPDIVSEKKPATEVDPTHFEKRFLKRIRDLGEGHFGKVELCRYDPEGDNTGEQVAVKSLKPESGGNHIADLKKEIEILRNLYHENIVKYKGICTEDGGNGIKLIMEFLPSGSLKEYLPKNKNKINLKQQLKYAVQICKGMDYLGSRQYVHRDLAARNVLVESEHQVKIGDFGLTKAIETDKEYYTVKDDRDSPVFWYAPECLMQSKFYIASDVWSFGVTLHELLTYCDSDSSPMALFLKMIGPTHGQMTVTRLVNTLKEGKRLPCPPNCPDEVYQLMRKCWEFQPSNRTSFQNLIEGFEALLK
Protocol: (§1) The JAK1 inhibitory activity and the JAK2 inhibitory activity of the amide compounds provided in the above examples were tested by the method below.
(§2) Specific steps are described below. • 1. A 1× Kinase buffer was formulated. • 2. Concentration gradients of the compound were formulated: a test compound with an initial concentration of 10000 nM (JAK1) or 30000 nM (JAK2) was diluted in a 384-well plate to a 100% DMSO solution with a 100-fold final concentration, wherein the compound was diluted by a fold of 3 to 10 concentrations. 250 nL of the compound with the 100-fold final concentration was transferred with a dispenser Echo 550 to the target plate. • 3. A kinase solution with a 2.5-fold final concentration was prepared with the 1× Kinase buffer. • 4. […] The plate was centrifuged at 1000 rpm for 30 s, shaken and uniformly mixed, and incubated for 10 min at room temperature. • 6. A mixed solution of ATP (the final concentration of ATP=1 mM) and Kinase substrate with a 5/3-fold final concentration was formulated with the 1× Kinase buffer. • 7. 15 μL of the mixed solution of ATP and the substrate with the 5/3-fold final concentration was added to initiate the reaction. • 8. The 384-well plate was centrifuged at 1000 rpm for 30 s, shaken and uniformly mixed, and incubated for respective times at room temperature. • 9. The kinase reaction was stopped by adding 30 μL of a detection termination solution, and the plate was centrifuged at 1000 rpm for 30 s and shaken and uniformly mixed. • 10. The conversion rate was read with Caliper EZ Reader and the half maximal inhibitory concentration (IC50) was calculated.

JAK2 = JAK2 (Homo sapiens (Human), UniProt O60674); experiment: JAK2 inhibitory activity, mobility shift assay, 1 mM ATP; format: biochemical
Sequence of JAK2 (O60674 826-1132): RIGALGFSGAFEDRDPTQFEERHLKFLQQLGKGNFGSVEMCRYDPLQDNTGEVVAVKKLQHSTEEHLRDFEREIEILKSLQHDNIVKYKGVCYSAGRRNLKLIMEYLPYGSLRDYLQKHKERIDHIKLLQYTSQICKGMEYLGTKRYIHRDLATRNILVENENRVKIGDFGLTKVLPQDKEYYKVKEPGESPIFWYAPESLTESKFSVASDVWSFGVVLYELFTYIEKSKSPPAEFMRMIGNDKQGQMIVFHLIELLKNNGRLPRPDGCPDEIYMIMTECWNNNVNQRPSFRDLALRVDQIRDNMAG
Protocol: as §1, §2

| IC50 [1] [nM] | IC50 (JAK1; Table 7) [nM] | IC50 (JAK1; Table 8) [nM] | JAK2/JAK1 Multiple selectivity (JAK1) | IC50 (JAK2; Table 7) [nM] | IC50 (JAK2; Table 8) [nM] | Compound |
| --- | --- | --- | --- | --- | --- | --- |
| 121 | 26 | 26 | 149 | 3880 | 3880 | COc1nn(C)cc1Nc1ncc(C)c(-c2c[nH]c3c(NC(=O)[C@H]4CC(F)(F)CN4[C@@H]4CCN(C)C4)cccc23)n1 [Example 32, (2R,3′R)-4,4-difluoro-N-(3-(2-((3-methoxy-1-methyl-1H-pyrazol-4-yl)amino)-5-methylpyrimidin-4-yl)-1H-indol-7-yl)-1′-methyl-[1,3′-bipyrrolidine]-2-carboxamide] |
| 204 |  |  |  |  |  | CCCS(=O)(=O)N[C@H]1C[C@@H](N(C)c2ncnc3[nH]ccc23)C1 [abrocitinib, reference compound] |
|  | 48 |  |  | 5490 |  | COc1nn(C)cc1Nc1ncc(F)c(-c2c[nH]c3c(NC(=O)[C@H]4CC(F)(F)CN4[C@@H]4CCN(C)C4)cccc23)n1 [Example 26, (2R,3′R)-4,4-difluoro-N-(3-(5-fluoro-2-((3-methoxy-1-methyl-1H-pyrazol-4-yl)amino)pyrimidin-4-yl)-1H-indol-7-yl)-1′-methyl-[1,3′-bipyrrolidine]-2-carboxamide] |
|  | 68 |  |  | 12400 |  | COc1nn(C)cc1Nc1ncc(F)c(-c2c[nH]c3c(NC(=O)[C@H]4CCCN4[C@H]4CCN(C)C4)cccc23)n1 [Example 25, (2R,3′S)-N-(3-(5-fluoro-2-((3-methoxy-1-methyl-1H-pyrazol-4-yl)amino)pyrimidin-4-yl)-1H-indol-7-yl)-1′-methyl-[1,3′-bipyrrolidine]-2-carboxamide] |
|  | 40 |  |  | 16300 |  | COc1nn(C)cc1Nc1ncc(C)c(-c2c[nH]c3c(NC(=O)[C@H]4CCCN4[C@@H]4CCN(C)C4)cccc23)n1 [Example 28, (2R,3′R)-N-(3-(2-((3-methoxy-1-methyl-1H-pyrazol-4-yl)amino)-5-methylpyrimidin-4-yl)-1H-indol-7-yl)-1′-methyl-[1,3′-bipyrrolidine]-2-carboxamide] |
|  | 60 |  |  | 4400 |  | COc1nn(C)cc1Nc1ncc(F)c(-c2c[nH]c3c(NC(=O)[C@H]4CC(F)(F)CN4[C@H]4CCN(C)C4)cccc23)n1 [Example 27, (2R,3′S)-4,4-difluoro-N-(3-(5-fluoro-2-((3-methoxy-1-methyl-1H-pyrazol-4-yl)amino)pyrimidin-4-yl)-1H-indol-7-yl)-1′-methyl-[1,3′-bipyrrolidine]-2-carboxamide] |

The remaining lines, values behind:

| Compound | IC50 [1] [nM] | IC50 (JAK1; Table 7) [nM] | IC50 (JAK1; Table 8) [nM] | JAK2/JAK1 Multiple selectivity (JAK1) | IC50 (JAK2; Table 7) [nM] | IC50 (JAK2; Table 8) [nM] |
| --- | --- | --- | --- | --- | --- | --- |
| COc1nn(C)cc1Nc1nccc(-c2c[nH]c3c(NC(=O)[C@@H](C)N4CCN(C)CC4)cccc23)n1 [AZD4205, reference compound] | 173 | 56 | 56 | 72 | 4020 | 4020 |
| COc1nn(C)cc1Nc1ncc(F)c(-c2c[nH]c3c(NC(=O)[C@H]4CCCN4C4CCN(C)CC4)cccc23)n1 [Example 10, (R)-N-(3-(5-fluoro-2-((3-methoxy-1-methyl-1H-pyrazol-4-yl)amino)pyrimidin-4-yl)-1H-indol-7-yl)-1-(1-methylpiperidin-4-yl)pyrrolidine-2-carboxamide] |  | 104 |  |  | 14600 |  |
| COc1nn(C)cc1Nc1nccc(-c2c[nH]c3c(NC(=O)[C@H]4C[C@H](F)CN4[C@@H]4CCNC4)cccc23)n1 (single isomer, unassigned) [Example 18] |  | 108 |  |  | 10200 |  |
| COc1nn(C)cc1Nc1ncc(F)c(-c2c[nH]c3c(NC(=O)[C@H]4C[C@@H](OC)CN4C4CCNCC4)cccc23)n1 [Example 8, (2R,4R)-N-(3-(5-fluoro-2-((3-methoxy-1-methyl-1H-pyrazol-4-yl)amino)pyrimidin-4-yl)-1H-indol-7-yl)-4-methoxy-1-(piperidin-4-yl)pyrrolidine-2-carboxamide] |  | 1170 |  |  | 10500 |  |
| COc1nn(C)cc1Nc1ncc(C)c(-c2c[nH]c3c(NC(=O)[C@H]4CCCN4C4CCN(C)CC4)cccc23)n1 [Example 11, (R)-N-(3-(2-((3-methoxy-1-methyl-1H-pyrazol-4-yl)amino)-5-methylpyrimidin-4-yl)-1H-indol-7-yl)-1-(1-methylpiperidin-4-yl)pyrrolidine-2-carboxamide] |  | 69 |  |  | 12100 |  |
| COc1nn(C)cc1Nc1ncc(Cl)c(-c2c[nH]c3c(NC(=O)[C@H]4CCCN4C4CCN(C)CC4)cccc23)n1 [Example 15, (R)-N-(3-(5-chloro-2-((3-methoxy-1-methyl-1H-pyrazol-4-yl)amino)pyrimidin-4-yl)-1H-indol-7-yl)-1-(1-methylpiperidin-4-yl)pyrrolidine-2-carboxamide] |  | 27 |  |  | 3640 |  |
| CCS(=O)(=O)N1CCC[C@H]1C(=O)Nc1cccc2c(-c3nc(Nc4cn(C)nc4OC)ncc3F)c[nH]c12 [Example 2, (S)-N-(3-(5-fluoro-2-((3-methoxy-1-methyl-1H-pyrazol-4-yl)amino)pyrimidin-4-yl)-1H-indol-7-yl)-1-(ethanesulfonyl)pyrrolidine-2-carboxamide] |  | 137 |  |  | 1850 |  |
| COc1nn(C)cc1Nc1ncc(C)c(-c2c[nH]c3c(NC(=O)[C@H]4C[C@H](F)CN4C4CCN(C)CC4)cccc23)n1 [Example 14, (2R,4S)-4-fluoro-N-(3-(2-((3-methoxy-1-methyl-1H-pyrazol-4-yl)amino)-5-methylpyrimidin-4-yl)-1H-indol-7-yl)-1-(1-methylpiperidin-4-yl)pyrrolidine-2-carboxamide] |  | 41 |  |  | 6620 |  |
| COc1nn(C)cc1Nc1ncc(F)c(-c2c[nH]c3c(NC(=O)[C@H]4CCCN4[C@H]4CCNC4)cccc23)n1 [Example 23, (2R,3′S)-N-(3-(5-fluoro-2-((3-methoxy-1-methyl-1H-pyrazol-4-yl)amino)pyrimidin-4-yl)-1H-indol-7-yl)-[1,3′-bipyrrolidine]-2-carboxamide] |  | 59 |  |  | 5370 |  |
| COc1nn(C)cc1Nc1ncc(F)c(-c2c[nH]c3c(NC(=O)[C@H]4C[C@H](OC)CN4C4CCNCC4)cccc23)n1 [Example 9, (2R,4S)-N-(3-(5-fluoro-2-((3-methoxy-1-methyl-1H-pyrazol-4-yl)amino)pyrimidin-4-yl)-1H-indol-7-yl)-4-methoxy-1-(piperidin-4-yl)pyrrolidine-2-carboxamide] |  | 51 |  |  | 5000 |  |
| COc1nn(C)cc1Nc1ncc(F)c(-c2c[nH]c3c(NC(=O)[C@H]4C[C@H](F)CN4C4CCNCC4)cccc23)n1 [Example 6, (2R,4S)-4-fluoro-N-(3-(5-fluoro-2-((3-methoxy-1-methyl-1H-pyrazol-4-yl)amino)pyrimidin-4-yl)-1H-indol-7-yl)-1-(piperidin-4-yl)pyrrolidine-2-carboxamide] |  | 68 |  |  | 4000 |  |
| COc1nn(C)cc1Nc1ncc(C)c(-c2c[nH]c3c(NC(=O)[C@H]4C[C@H](OC)CN4C4CCN(C)CC4)cccc23)n1 [Example 13, (2R,4S)-4-methoxy-N-(3-(2-((3-methoxy-1-methyl-1H-pyrazol-4-yl)amino)-5-methylpyrimidin-4-yl)-1H-indol-7-yl)-1-(1-methylpiperidin-4-yl)pyrrolidine-2-carboxamide] |  | 101 |  |  | 14500 |  |
